Measurements published in ChEMBL document CHEMBL4602695, “Discovery and SARs of 5-Chloro-N4-phenyl-N2-(pyridin-2-yl)pyrimidine-2,4-diamine Derivatives as Oral Available and Dual CDK 6 and 9 Inhibitors with Potent Antitumor Activity” (J Med Chem, 2020).

test system: Jurkat; experiment: Antiproliferative activity against human Jurkat cells assessed as inhibition of cell proliferation measured after 48 hrs by CCK8 assay; type: functional, cell-based; conditions: not given

| SMILES | GI50 |
| --- | --- |
| Cc1ccccc1Nc1nc(Nc2ccccc2)ncc1Cl | > 100 µM |
| COc1ccc(CNc2nc(Nc3ccc(N4CCN(C)CC4)cn3)ncc2Cl)cc1 | 12.9 µM |
| COC[C@@H](C)N[C@H]1CC[C@H](Nc2cc(-c3cccc(NCC4(C#N)CCOCC4)n3)c(Cl)cn2)CC1 | < 0.16 µM |
| Cc1ccccc1Nc1nc(Nc2ccc(N3CCOCC3)cn2)ncc1Cl | 14.1 µM |
| Cc1cc(C)c(Nc2nc(Nc3ccc(N4CCN(C)CC4)cn3)ncc2Cl)c(C)c1 | 7.6 µM |
| CC(C)c1cccc(Nc2nc(Nc3ccc(N4CCN(C)CC4)cn3)ncc2Cl)c1 | 12.2 µM |
| Cc1ccccc1Nc1nc(NCCc2ccccc2)ncc1Cl | > 100 µM |
| Cc1ccccc1Nc1nc(Nc2ccncc2)ncc1Cl | > 100 µM |
| COc1cccc(CNc2nc(Nc3ccc(N4CCN(C)CC4)cn3)ncc2Cl)c1 | 73.4 µM |
| Cc1ccc(CNc2nc(Nc3ccc(N4CCN(C)CC4)cn3)ncc2Cl)cc1 | 12.7 µM |
| Cc1ccccc1Nc1nc(Nc2ccc(N3CCNCC3)cn2)ncc1Cl | 7.87 µM |
| COc1ccc(CCNc2nc(Nc3ccc(N4CCN(C)CC4)cn3)ncc2Cl)cc1 | > 100 µM |
| Cc1ccc(Nc2nc(Nc3ccc(N4CCN(C)CC4)cn3)ncc2Cl)cc1 | 30.9 µM |
| CC(C)c1ccccc1Nc1nc(Nc2ccc(N3CCN(C)CC3)cn2)ncc1Cl | 5.14 µM |

test system: MCF7; experiment: Antiproliferative activity against human MCF7 cells assessed as inhibition of cell proliferation measured after 48 hrs by CCK8 assay; type: functional, cell-based; conditions: MCF7, 48 h

| SMILES | GI50 |
| --- | --- |
| Cc1ccccc1Nc1nc(Nc2ccccc2)ncc1Cl | > 100 µM |
| COc1ccc(CNc2nc(Nc3ccc(N4CCN(C)CC4)cn3)ncc2Cl)cc1 | 17.3 µM |
| COC[C@@H](C)N[C@H]1CC[C@H](Nc2cc(-c3cccc(NCC4(C#N)CCOCC4)n3)c(Cl)cn2)CC1 | 43.4 µM |
| Cc1ccccc1Nc1nc(Nc2ccc(N3CCOCC3)cn2)ncc1Cl | 6.63 µM |
| Cc1cc(C)c(Nc2nc(Nc3ccc(N4CCN(C)CC4)cn3)ncc2Cl)c(C)c1 | 9.47 µM |
| CC(C)c1cccc(Nc2nc(Nc3ccc(N4CCN(C)CC4)cn3)ncc2Cl)c1 | 8.64 µM |
| Cc1ccccc1Nc1nc(NCCc2ccccc2)ncc1Cl | > 100 µM |
| Cc1ccccc1Nc1nc(Nc2ccncc2)ncc1Cl | 98.5 µM |
| COc1cccc(CNc2nc(Nc3ccc(N4CCN(C)CC4)cn3)ncc2Cl)c1 | 19.5 µM |
| Cc1ccc(CNc2nc(Nc3ccc(N4CCN(C)CC4)cn3)ncc2Cl)cc1 | 38.1 µM |
| Cc1ccccc1Nc1nc(Nc2ccc(N3CCNCC3)cn2)ncc1Cl | 3.41 µM |
| COc1ccc(CCNc2nc(Nc3ccc(N4CCN(C)CC4)cn3)ncc2Cl)cc1 | 38.4 µM |
| Cc1ccc(Nc2nc(Nc3ccc(N4CCN(C)CC4)cn3)ncc2Cl)cc1 | 11.4 µM |
| CC(C)c1ccccc1Nc1nc(Nc2ccc(N3CCN(C)CC3)cn2)ncc1Cl | 4.36 µM |
| CN1CCN(c2ccc(Nc3ncc(Cl)c(Nc4ccc(C(C)(C)C)cc4)n3)nc2)CC1 | 12.6 µM |

test system: not listed separately; experiment: Cytotoxicity against human L02 cells assessed as inhibition of cell proliferation measured after 48 hrs by CCK8 assay; type: cell-based; conditions: not given

| SMILES | GI50 at 48 h |
| --- | --- |
| Cc1ccccc1Nc1nc(Nc2ccccc2)ncc1Cl | > 100 µM |
| COc1ccc(CNc2nc(Nc3ccc(N4CCN(C)CC4)cn3)ncc2Cl)cc1 | 12.9 µM |
| COC[C@@H](C)N[C@H]1CC[C@H](Nc2cc(-c3cccc(NCC4(C#N)CCOCC4)n3)c(Cl)cn2)CC1 | 28.3 µM |
| Cc1ccccc1Nc1nc(Nc2ccc(N3CCOCC3)cn2)ncc1Cl | 1.99 µM |
| Cc1cc(C)c(Nc2nc(Nc3ccc(N4CCN(C)CC4)cn3)ncc2Cl)c(C)c1 | 20.5 µM |
| CC(C)c1cccc(Nc2nc(Nc3ccc(N4CCN(C)CC4)cn3)ncc2Cl)c1 | 12.5 µM |
| Cc1ccccc1Nc1nc(NCCc2ccccc2)ncc1Cl | > 100 µM |
| Cc1ccccc1Nc1nc(Nc2ccncc2)ncc1Cl | > 100 µM |
| COc1cccc(CNc2nc(Nc3ccc(N4CCN(C)CC4)cn3)ncc2Cl)c1 | 16.2 µM |
| Cc1ccc(CNc2nc(Nc3ccc(N4CCN(C)CC4)cn3)ncc2Cl)cc1 | > 100 µM |
| Cc1ccccc1Nc1nc(Nc2ccc(N3CCNCC3)cn2)ncc1Cl | 1.85 µM |
| COc1ccc(CCNc2nc(Nc3ccc(N4CCN(C)CC4)cn3)ncc2Cl)cc1 | > 100 µM |
| Cc1ccc(Nc2nc(Nc3ccc(N4CCN(C)CC4)cn3)ncc2Cl)cc1 | 13.9 µM |
| CN1CCN(c2ccc(Nc3ncc(Cl)c(Nc4ccc(C(C)(C)C)cc4)n3)nc2)CC1 | 6.07 µM |

molecular target: CDK6/cyclin D3 (Homo sapiens, UniProt Q00534); experiment: not given; set-up: species or system Sf9; conditions: not given
Sequence (P30281 whole entry): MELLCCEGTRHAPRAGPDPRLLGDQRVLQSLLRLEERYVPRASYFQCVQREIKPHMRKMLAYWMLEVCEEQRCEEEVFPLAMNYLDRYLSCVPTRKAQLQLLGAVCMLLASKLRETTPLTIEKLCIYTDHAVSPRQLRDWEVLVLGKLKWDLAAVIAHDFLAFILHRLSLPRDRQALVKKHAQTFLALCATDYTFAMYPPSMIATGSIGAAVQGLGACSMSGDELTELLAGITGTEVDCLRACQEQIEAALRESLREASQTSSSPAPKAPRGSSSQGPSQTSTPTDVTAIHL
Sequence (Q00534 whole entry): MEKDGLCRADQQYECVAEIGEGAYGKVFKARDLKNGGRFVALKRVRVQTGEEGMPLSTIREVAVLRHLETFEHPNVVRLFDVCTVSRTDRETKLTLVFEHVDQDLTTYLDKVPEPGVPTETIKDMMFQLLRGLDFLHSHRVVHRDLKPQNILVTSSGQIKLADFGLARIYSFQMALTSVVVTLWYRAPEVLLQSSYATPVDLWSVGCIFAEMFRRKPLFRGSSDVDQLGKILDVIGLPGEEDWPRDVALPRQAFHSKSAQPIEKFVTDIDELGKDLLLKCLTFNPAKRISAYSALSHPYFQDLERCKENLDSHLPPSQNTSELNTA

| SMILES | IC50 |
| --- | --- |
| Cc1ccccc1Nc1nc(Nc2ccccc2)ncc1Cl | > 10 µM |
| COc1ccc(CNc2nc(Nc3ccc(N4CCN(C)CC4)cn3)ncc2Cl)cc1 | 0.64 µM |
| COC[C@@H](C)N[C@H]1CC[C@H](Nc2cc(-c3cccc(NCC4(C#N)CCOCC4)n3)c(Cl)cn2)CC1 | > 10 µM |
| Cc1ccccc1Nc1nc(Nc2ccc(N3CCOCC3)cn2)ncc1Cl | 0.046 µM |
| Cc1cc(C)c(Nc2nc(Nc3ccc(N4CCN(C)CC4)cn3)ncc2Cl)c(C)c1 | 8.87 µM |
| CC(C)c1cccc(Nc2nc(Nc3ccc(N4CCN(C)CC4)cn3)ncc2Cl)c1 | 0.452 µM |
| Cc1ccccc1Nc1nc(NCCc2ccccc2)ncc1Cl | > 10 µM |
| Cc1ccccc1Nc1nc(Nc2ccncc2)ncc1Cl | > 10 µM |
| COc1cccc(CNc2nc(Nc3ccc(N4CCN(C)CC4)cn3)ncc2Cl)c1 | 1.6 µM |
| Cc1ccc(CNc2nc(Nc3ccc(N4CCN(C)CC4)cn3)ncc2Cl)cc1 | 1.04 µM |
| Cc1ccccc1Nc1nc(Nc2ccc(N3CCNCC3)cn2)ncc1Cl | 0.042 µM |
| COc1ccc(CCNc2nc(Nc3ccc(N4CCN(C)CC4)cn3)ncc2Cl)cc1 | > 10 µM |
| Cc1ccc(Nc2nc(Nc3ccc(N4CCN(C)CC4)cn3)ncc2Cl)cc1 | 0.088 µM |
| CC(C)c1ccccc1Nc1nc(Nc2ccc(N3CCN(C)CC3)cn2)ncc1Cl | 0.033 µM |
| CN1CCN(c2ccc(Nc3ncc(Cl)c(Nc4ccc(C(C)(C)C)cc4)n3)nc2)CC1 | 0.735 µM |

test system: MDA-MB-231; experiment: Antiproliferative activity against human MDA-MB-231 cells assessed as inhibition of cell proliferation measured after 48 hrs by CCK8 assay; type: functional, cell-based; conditions: MDA-MB-231, 48 h

| SMILES | GI50 |
| --- | --- |
| Cc1ccccc1Nc1nc(Nc2ccccc2)ncc1Cl | > 100 µM |
| COc1ccc(CNc2nc(Nc3ccc(N4CCN(C)CC4)cn3)ncc2Cl)cc1 | 14.9 µM |
| COC[C@@H](C)N[C@H]1CC[C@H](Nc2cc(-c3cccc(NCC4(C#N)CCOCC4)n3)c(Cl)cn2)CC1 | < 0.16 µM |
| Cc1ccccc1Nc1nc(Nc2ccc(N3CCOCC3)cn2)ncc1Cl | 5.98 µM |
| Cc1cc(C)c(Nc2nc(Nc3ccc(N4CCN(C)CC4)cn3)ncc2Cl)c(C)c1 | 21 µM |
| CC(C)c1cccc(Nc2nc(Nc3ccc(N4CCN(C)CC4)cn3)ncc2Cl)c1 | 5.59 µM |
| Cc1ccccc1Nc1nc(NCCc2ccccc2)ncc1Cl | > 100 µM |
| Cc1ccccc1Nc1nc(Nc2ccncc2)ncc1Cl | 68.1 µM |
| COc1cccc(CNc2nc(Nc3ccc(N4CCN(C)CC4)cn3)ncc2Cl)c1 | 20.3 µM |
| Cc1ccc(CNc2nc(Nc3ccc(N4CCN(C)CC4)cn3)ncc2Cl)cc1 | 18.6 µM |
| Cc1ccccc1Nc1nc(Nc2ccc(N3CCNCC3)cn2)ncc1Cl | 5.06 µM |
| COc1ccc(CCNc2nc(Nc3ccc(N4CCN(C)CC4)cn3)ncc2Cl)cc1 | > 100 µM |
| Cc1ccc(Nc2nc(Nc3ccc(N4CCN(C)CC4)cn3)ncc2Cl)cc1 | 4.03 µM |
| CC(C)c1ccccc1Nc1nc(Nc2ccc(N3CCN(C)CC3)cn2)ncc1Cl | 4.09 µM |
| CN1CCN(c2ccc(Nc3ncc(Cl)c(Nc4ccc(C(C)(C)C)cc4)n3)nc2)CC1 | 16.2 µM |

molecular target: CDK9/Cyclin K (Homo sapiens, UniProt P50750); experiment: biochemical; conditions: not given
Sequence (P50750 whole entry): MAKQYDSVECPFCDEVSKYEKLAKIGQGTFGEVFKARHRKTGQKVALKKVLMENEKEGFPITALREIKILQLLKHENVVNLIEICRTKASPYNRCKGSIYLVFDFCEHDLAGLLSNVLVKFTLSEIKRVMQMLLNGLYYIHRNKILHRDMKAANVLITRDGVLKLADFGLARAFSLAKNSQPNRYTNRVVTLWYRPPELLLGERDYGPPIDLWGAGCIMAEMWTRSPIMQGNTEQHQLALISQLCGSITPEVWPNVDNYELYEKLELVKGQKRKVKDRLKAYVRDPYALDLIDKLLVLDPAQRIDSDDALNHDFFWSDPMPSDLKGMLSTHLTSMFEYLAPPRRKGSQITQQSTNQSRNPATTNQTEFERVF
Sequence (O75909 whole entry, further chain): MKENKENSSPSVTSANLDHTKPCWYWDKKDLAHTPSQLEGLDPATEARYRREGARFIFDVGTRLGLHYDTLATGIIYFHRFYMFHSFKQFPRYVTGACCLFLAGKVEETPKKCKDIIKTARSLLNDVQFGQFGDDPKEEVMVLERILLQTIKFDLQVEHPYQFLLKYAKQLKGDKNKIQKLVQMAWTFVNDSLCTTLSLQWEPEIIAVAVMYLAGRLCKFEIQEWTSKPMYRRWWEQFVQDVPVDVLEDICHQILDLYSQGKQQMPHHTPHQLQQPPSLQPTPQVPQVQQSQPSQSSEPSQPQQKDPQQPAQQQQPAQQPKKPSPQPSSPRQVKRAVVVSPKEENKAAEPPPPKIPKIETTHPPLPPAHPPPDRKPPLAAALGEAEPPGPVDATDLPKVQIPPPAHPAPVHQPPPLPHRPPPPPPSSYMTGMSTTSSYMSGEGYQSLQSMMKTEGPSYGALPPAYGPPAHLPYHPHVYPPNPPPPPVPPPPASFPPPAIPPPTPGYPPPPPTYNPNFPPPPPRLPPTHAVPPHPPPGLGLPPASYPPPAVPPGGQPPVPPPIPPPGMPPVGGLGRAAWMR

| SMILES | IC50 |
| --- | --- |
| Cc1ccccc1Nc1nc(Nc2ccccc2)ncc1Cl | > 10 µM |
| COc1ccc(CNc2nc(Nc3ccc(N4CCN(C)CC4)cn3)ncc2Cl)cc1 | > 10 µM |
| COC[C@@H](C)N[C@H]1CC[C@H](Nc2cc(-c3cccc(NCC4(C#N)CCOCC4)n3)c(Cl)cn2)CC1 | 0.002 µM |
| Cc1ccccc1Nc1nc(Nc2ccc(N3CCOCC3)cn2)ncc1Cl | 0.051 µM |
| Cc1cc(C)c(Nc2nc(Nc3ccc(N4CCN(C)CC4)cn3)ncc2Cl)c(C)c1 | > 10 µM |
| CC(C)c1cccc(Nc2nc(Nc3ccc(N4CCN(C)CC4)cn3)ncc2Cl)c1 | 0.654 µM |
| Cc1ccccc1Nc1nc(NCCc2ccccc2)ncc1Cl | > 10 µM |
| Cc1ccccc1Nc1nc(Nc2ccncc2)ncc1Cl | > 10 µM |
| COc1cccc(CNc2nc(Nc3ccc(N4CCN(C)CC4)cn3)ncc2Cl)c1 | 3.29 µM |
| Cc1ccc(CNc2nc(Nc3ccc(N4CCN(C)CC4)cn3)ncc2Cl)cc1 | > 10 µM |
| Cc1ccccc1Nc1nc(Nc2ccc(N3CCNCC3)cn2)ncc1Cl | 0.114 µM |
| COc1ccc(CCNc2nc(Nc3ccc(N4CCN(C)CC4)cn3)ncc2Cl)cc1 | > 10 µM |
| Cc1ccc(Nc2nc(Nc3ccc(N4CCN(C)CC4)cn3)ncc2Cl)cc1 | 1.45 µM |
| CC(C)c1ccccc1Nc1nc(Nc2ccc(N3CCN(C)CC3)cn2)ncc1Cl | 2.65 µM |
| CN1CCN(c2ccc(Nc3ncc(Cl)c(Nc4ccc(C(C)(C)C)cc4)n3)nc2)CC1 | 6.82 µM |

molecular target: CDK2/Cyclin A2 (Homo sapiens, UniProt P24941); experiment: not given; set-up: species or system Sf9; conditions: not given

| SMILES | IC50 |
| --- | --- |
| Cc1ccccc1Nc1nc(Nc2ccccc2)ncc1Cl | > 10 µM |
| COc1ccc(CNc2nc(Nc3ccc(N4CCN(C)CC4)cn3)ncc2Cl)cc1 | > 10 µM |
| COC[C@@H](C)N[C@H]1CC[C@H](Nc2cc(-c3cccc(NCC4(C#N)CCOCC4)n3)c(Cl)cn2)CC1 | 3.46 µM |
| Cc1ccccc1Nc1nc(Nc2ccc(N3CCOCC3)cn2)ncc1Cl | > 10 µM |
| Cc1cc(C)c(Nc2nc(Nc3ccc(N4CCN(C)CC4)cn3)ncc2Cl)c(C)c1 | > 10 µM |
| CC(C)c1cccc(Nc2nc(Nc3ccc(N4CCN(C)CC4)cn3)ncc2Cl)c1 | > 10 µM |
| Cc1ccccc1Nc1nc(NCCc2ccccc2)ncc1Cl | > 10 µM |
| Cc1ccccc1Nc1nc(Nc2ccncc2)ncc1Cl | 6.23 µM |
| COc1cccc(CNc2nc(Nc3ccc(N4CCN(C)CC4)cn3)ncc2Cl)c1 | > 10 µM |
| Cc1ccc(CNc2nc(Nc3ccc(N4CCN(C)CC4)cn3)ncc2Cl)cc1 | > 10 µM |
| Cc1ccccc1Nc1nc(Nc2ccc(N3CCNCC3)cn2)ncc1Cl | 2.06 µM |
| COc1ccc(CCNc2nc(Nc3ccc(N4CCN(C)CC4)cn3)ncc2Cl)cc1 | > 10 µM |
| Cc1ccc(Nc2nc(Nc3ccc(N4CCN(C)CC4)cn3)ncc2Cl)cc1 | > 10 µM |
| CC(C)c1ccccc1Nc1nc(Nc2ccc(N3CCN(C)CC3)cn2)ncc1Cl | > 10 µM |
| CN1CCN(c2ccc(Nc3ncc(Cl)c(Nc4ccc(C(C)(C)C)cc4)n3)nc2)CC1 | > 10 µM |
